Data reported in US5281628A, “9-amino-7-(substituted)-6-demethyl-6-deoxytetracyclines” (American Cyanamid Company, priority 1991, dated 1994).
Where a name gives a salt, the structure may show the parent alone.

Columns and labels:
[1] = tested on: S. aureus UBMS 90-1 (tetM); assay: Acute lethal infections in mice; assay type: in vivo; settings: Staphylococcus aureus, sc, 168 h
Protocol: (§1) The therapeutic effects of tetracyclines are determined against acute lethal infections with various staphylococcal and E. coli strains. Female mice, strain CD-1 Charles River Laboratories, (20±2 grams) are challenged by an intraperitoneal injection of sufficient bacteria (suspended in broth or hog gastric mucin) to kill non-treated controls within 24-48 hours. Antibacterial agents, contained in 0.5 ml of 0.2% aqueous agar, are administered subcutaneously or orally 30 minutes after infection. When an oral dosing schedule is used, animals are deprived of food for 5 hours before and 2 hours after infection. Five mice are treated at each dose level. The 7 day survival ratios from three separate tests are pooled for calculation of median effective dose (ED50).

S. aureus Smith (sens) = assay: Acute lethal infections in mice; assay type: in vivo; settings: Staphylococcus aureus, 168 h, Single Dose, 7 day survival
Protocol: as §1

E. coli UBMS 90-4 (tetM) [2] = assay: Acute lethal infections in mice; assay type: in vivo; settings: Escherichia coli, sc, 168 h
Protocol: as §1

[3] = tested on: S. aureus UBMS 90-2 (tetM); assay: Acute lethal infections in mice; assay type: in vivo; settings: Staphylococcus aureus, 168 h
Protocol: as §1

E. coli 311 (sens) = assay: Acute lethal infections in mice; assay type: in vivo; settings: Escherichia coli, sc, 168 h, Subcutaneous, Single Dose, 7 day survival
Protocol: as §1

[4] = tested on: E. coli S30 Ribosomes, Wild Type (tetracycline sensitive); assay: In vitro protein translation with E. coli S30 ribosomes, wild type; assay type: biochemical; settings: for inhibition of protein synthesis on wild type ribosomes (in words): coupled transcription and translation system
Protocol: The E. coli in vitro translation system can be used to study not only the mechanism of protein translation itself, but also the effect that various compounds may have on protein synthesis. The system can be set up to function as a coupled transcription and translation system or as a translation only system depending on whether DNA or RNA is added to initiate protein synthesis. In this way, compounds affecting either RNA synthesis and/or protein synthesis can be studied. Protein synthesis is monitored by the incorporation of radiolabeled amino acids into trichloroacetic acid precipitable material. The system used is based upon literature methods [G. Zubay, Ann. Rev. Genet., 7: 267-287(1973) and J. Collins, Gene, 6: 28-42 (1979)].
The system used to study tetracycline protein synthesis inhibition is as follows:
An S30 extract (supernatant from a 30,000×G centrifugation of lysed cells) of either tetracycline sensitive or tetracycline resistant (tetM+) cells is combined with a mixture of low molecular weight compounds required for protein synthesis which include a mixture of 19 amino acids, methionine, ^35 S-methionine, plasmid template DNA and either dimethylsulfoxide (DMSO) or the tetracycline to be tested dissolved and diluted in DMSO. This mixture is incubated at 37° C. for 30 minutes. Following the incubation, 2.5 μl of the 10 μl reaction is removed and added to 0.5 ml of 1N sodium hydroxide. The solution is incubated an additional 15 minutes at 37° C., to destroy any m-RNA and t-RNA. The incorporation of ^35 S-methionine is determined by precipitating the high molecular weight material in the sodium hydroxide aliquot with trichloroacetic acid (TCA), collecting the precipitated material on Whatman G/FC filters, drying the filters and counting the radioactivity retained on the filter. Percent inhibition (P.I.) of protein synthesis is determined by the following equation: [formula]

S. aureus and E. coli = assay: Acute lethal infections in mice, statements over several strains; assay type: in vivo; settings: S. aureus and E. coli carrying tetM
Protocol: as §1

E. coli UBMS 88-1 (tetB) = assay: microbe, parasite or virus in culture; assay type: cell-based; settings: Escherichia coli, 18 h
Protocol: (§2) The minimum inhibitory concentration (MIC), the lowest concentration of the antibiotic which inhibits growth of the test organism, is determined by the microtiter broth dilution method using 0.1 ml Muller-Hinton II broth (Baltimore Biological Laboratories) per well. A suitable oxygen scavenger (i.e., cysteine or dithiothreitol) is added to the assay medium for the testing of compounds according to Formula I because of the sensitivity of those compounds to oxidation. An inoculum level of 1-5×10^5 CFU/ml and a range of antibiotic concentrations (32 0.004 μg/ml) are used.

[5] = tested on: S. aureus UBMS 88-7 (tetK); assay: microbe, parasite or virus in culture; assay type: cell-based; settings: Staphylococcus aureus, 18 h
Protocol: as §2

[6] = tested on: E. faecalis AMV 120 (tetM); assay: MIC, microtiter broth dilution; assay type: cell-based; settings: Enterococcus faecalis, 18 h
Protocol: as §2

[7] = tested on: X. maltophilia FPOR 87-210; assay: MIC, microtiter broth dilution; assay type: cell-based; settings: Stenotrophomonas maltophilia, FPOR87210, 18 h, no cysteine stated
Protocol: as §2

E. coli UBMS 90-4 (tetM) [8] = assay: MIC, microtiter broth dilution; assay type: cell-based; settings: Escherichia coli, 18 h
Protocol: as §2

[9] = tested on: E. coli UBMS 89-2 (tetracycline-sensitive); assay: MIC, microtiter broth dilution; assay type: cell-based; settings: Escherichia coli, 18 h, no cysteine stated
Protocol: as §2

M. morganii NEMC 87-119 = assay: MIC, microtiter broth dilution; assay type: cell-based; settings: Morganella morganii, NEMC87119, 18 h, no cysteine stated
Protocol: as §2

E. coli UBMS 89-1 (tetM) = assay: MIC, microtiter broth dilution; assay type: cell-based; settings: Escherichia coli, 18 h
Protocol: as §2

[10] = tested on: E. faecalis PAM 211 (tetN); assay: MIC, microtiter broth dilution; assay type: cell-based; settings: Enterococcus faecalis, 18 h
Protocol: as §2

[11] = Wild Type S30 no DTT, 1.0 mg/ml
[12] = Wild Type S30 no DTT, 1:2 Dilution
[13] = Wild Type S30 no DTT, 1:4 Dilution
[14] = Wild Type S30 no DTT, 1:8 Dilution
[15] = Wild Type S30 no DTT, 1:16 Dilution
[16] = Wild Type S30 no DTT, 1:32 Dilution
[17] = Wild Type S30 no DTT, 1:64 Dilution
[18] = Wild Type S30 with DTT, 1.0 mg/ml
[19] = Wild Type S30 with DTT, 1:2 Dilution
[20] = Wild Type S30 with DTT, 1:4 Dilution
[21] = Wild Type S30 with DTT, 1:8 Dilution
[22] = Wild Type S30 with DTT, 1:16 Dilution
[23] = Wild Type S30 with DTT, 1:32 Dilution
[24] = Wild Type S30 with DTT, 1:64 Dilution

CN(C)c1cc(N)c(O)c2c1C[C@H]1C[C@H]3[C@H](N(C)C)C(O)=C(C(N)=O)C(=O)[C@@]3(O)C(O)=C1C2=O [A, 9-Amino-7-(dimethylamino)-6-demethyl-6-deoxytetracycline hydrochloride]
ED50 [1]: 0.3 mg/kg | ED50 (S. aureus Smith (sens); Oral): 0.81 mg/kg | ED50 (S. aureus Smith (sens); sc, Subcutaneous): 0.34 mg/kg | ED50 (E. coli UBMS 90-4 (tetM) [2]): 24 mg/kg | ED50 ([3]; po): 1.6 mg/kg | ED50 ([3]; sc): 0.53 mg/kg | ED50 (E. coli 311 (sens)): 2.8 mg/kg | % Inhibition [4, 11]: 88% | Counts [4, 11]: 52595 | % Inhibition [4, 12]: 82% | Counts [4, 12]: 80494 | % Inhibition [4, 13]: 79% | Counts [4, 13]: 95015 | % Inhibition [4, 14]: 72% | Counts [4, 14]: 130209 | % Inhibition [4, 15]: 55% | Counts [4, 15]: 205392 | % Inhibition [4, 16]: 35% | Counts [4, 16]: 297786 | % Inhibition [4, 17]: 46% | Counts [4, 17]: 245494 | % Inhibition [4, 18]: 96% | Counts [4, 18]: 38121 | % Inhibition [4, 19]: 93% | Counts [4, 19]: 60891 | % Inhibition [4, 20]: 89% | Counts [4, 20]: 92203 | % Inhibition [4, 21]: 84% | Counts [4, 21]: 143215 | % Inhibition [4, 22]: 75% | Counts [4, 22]: 214831 | % Inhibition [4, 23]: 73% | Counts [4, 23]: 238321 | % Inhibition [4, 24]: 56% | Counts [4, 24]: 380103 | inhibition of protein synthesis on wild type ribosomes (in words) [4]: effectively inhibit protein synthesis | ED50 compared with B, strains which carry the tetM resistance determinant (S. aureus and E. coli): Lowered ED50 's

CN(C)c1ccc(O)c2c1C[C@H]1C[C@H]3[C@H](N(C)C)C(O)=C(C(N)=O)C(=O)[C@@]3(O)C(O)=C1C2=O [B, 7-(Dimethylamino)-6-demethyl-6-deoxytetracycline hydrochloride]
ED50 [1]: 1.7 mg/kg | ED50 (S. aureus Smith (sens); Oral): 0.53 mg/kg | ED50 (S. aureus Smith (sens); sc, Subcutaneous): 0.32 mg/kg | ED50 (E. coli UBMS 90-4 (tetM) [2]): > 256 mg/kg | ED50 ([3]; po): 1.8 mg/kg | ED50 ([3]; sc): 1.8 mg/kg | ED50 (E. coli 311 (sens)): 3.1 mg/kg | % Inhibition [4, 11]: 87% | Counts [4, 11]: 57696 | % Inhibition [4, 12]: 83% | Counts [4, 12]: 76804 | % Inhibition [4, 13]: 88% | Counts [4, 13]: 53400 | % Inhibition [4, 14]: 64% | Counts [4, 14]: 162405 | % Inhibition [4, 15]: 53% | Counts [4, 15]: 213077 | % Inhibition [4, 16]: 33% | Counts [4, 16]: 306650 | % Inhibition [4, 17]: 0% | Counts [4, 17]: 457601 | % Inhibition [4, 18]: 93% | Counts [4, 18]: 58885 | % Inhibition [4, 19]: 91% | Counts [4, 19]: 78961 | % Inhibition [4, 20]: 87% | Counts [4, 20]: 111971 | % Inhibition [4, 21]: 83% | Counts [4, 21]: 149792 | % Inhibition [4, 22]: 76% | Counts [4, 22]: 207484 | % Inhibition [4, 23]: 67% | Counts [4, 23]: 289304 | % Inhibition [4, 24]: 41% | Counts [4, 24]: 518601 | inhibition of protein synthesis on wild type ribosomes (in words) [4]: effectively inhibit protein synthesis | MIC (E. coli UBMS 88-1 (tetB)): 8 µg/mL | MIC [5]: 0.03 µg/mL | MIC [6]: 16 µg/mL | MIC [7]: 0.06 µg/mL | MIC (E. coli UBMS 90-4 (tetM) [8]): > 32 µg/mL | MIC [9]: 0.5 µg/mL | MIC (M. morganii NEMC 87-119): 2 µg/mL | MIC (E. coli UBMS 89-1 (tetM)): 8 µg/mL | MIC [10]: 16 µg/mL
